Measured values as given in patent publication US20050214248A1, “Non-glycosylated polyacrylamide conjugates and their use for cytoprotection” (University of Bern, priority 2002, published 2005).
Where two headings read alike, the source gives them in different places. Blank lines part the entries; values can stand above or below the compound they belong to.

Columns and labels:
[1] = system: Peptone-induced acute rat peritonitis; assay: Rat peritoneal inflammation model (peptone-induced acute peritonitis, neutrophil extravasation); assay type: in vivo
Protocol: Acute rat peritonitis was induced as described in (Preobrazhenskaya, M. E., Berman, A. E., Mikhailov, V. I., Ushakova, N. A., Mazurov, A. V., Semenov, A. V., Usov, A. I., Nifant'ev, N. E., and Bovin, N. V. (1997) Fucoidan inhibits leukocyte recruitment in a model peritoneal inflammation in rat and blocks interaction of P-selectin with its carbohydrate ligand. Biochem. Mol. Biol. Int 43, 443-451) with some modifications. 10 ml of PBS containing 10% peptone was injected intraperitoneally into female Wistar rats (180-220 g). After 3 h rats were sacrificed and their peritoneal cavities were laved with 30 ml PBS containing 60 units/ml of heparin, 0.02% EDTA and 0.03% bovine serum. The total cell number in the lavage was counted and the cell suspension was concentrated by centrifugation at 400 g for 10 min. After 1:1 dilution with bovine serum smears were prepared and stained according to the Pappenheim method. Neutrophils were counted on two parallel slides and the total neutrophil number was calculated. The inhibitors were administered intravenously as a single dose in 0.3 ml sterile 0.9% NaCl 15 min after peptone injection. The same volume of NaCl solution Was injected into control animals. A difference between the control and tested groups was analyzed for statistical significance based on Student's t-test, p-values<0.05 were considered to be significant.
Peptone-induced acute rat peritonitis was characterized by neutrophil extravasation into the peritoneal cavities. […] A natural ligand such as recombinant PSGL-1 acts in a dose of about 1 mg/kg (S. P. Khor, K. McCarthy, M. Dupont, K. Murray, G. Timony. Pharmacokinetics, pharmacodynamics, allometry, and dose selection of rPSGL-Ig for phase I trial. J. Pharmacol. Exp. Ther., 293, 618-624 (2000); R. Hayward, B. Campbell, Y. K. Shin, R. Scalia, A. M. Lefer. Recombinant soluble P-selectin glycoprotein ligand-1 protects against myocardial ischemic reperfusion injury in cats. Cardiovascular Res., 41, 65-76 (1999)) which approaches the fucoidan activity under study. […]

P-selectin = target: T1, P-selectin (Homo sapiens, UniProt P16109); details: cited from earlier work
T1 sequence (P16109 42-830): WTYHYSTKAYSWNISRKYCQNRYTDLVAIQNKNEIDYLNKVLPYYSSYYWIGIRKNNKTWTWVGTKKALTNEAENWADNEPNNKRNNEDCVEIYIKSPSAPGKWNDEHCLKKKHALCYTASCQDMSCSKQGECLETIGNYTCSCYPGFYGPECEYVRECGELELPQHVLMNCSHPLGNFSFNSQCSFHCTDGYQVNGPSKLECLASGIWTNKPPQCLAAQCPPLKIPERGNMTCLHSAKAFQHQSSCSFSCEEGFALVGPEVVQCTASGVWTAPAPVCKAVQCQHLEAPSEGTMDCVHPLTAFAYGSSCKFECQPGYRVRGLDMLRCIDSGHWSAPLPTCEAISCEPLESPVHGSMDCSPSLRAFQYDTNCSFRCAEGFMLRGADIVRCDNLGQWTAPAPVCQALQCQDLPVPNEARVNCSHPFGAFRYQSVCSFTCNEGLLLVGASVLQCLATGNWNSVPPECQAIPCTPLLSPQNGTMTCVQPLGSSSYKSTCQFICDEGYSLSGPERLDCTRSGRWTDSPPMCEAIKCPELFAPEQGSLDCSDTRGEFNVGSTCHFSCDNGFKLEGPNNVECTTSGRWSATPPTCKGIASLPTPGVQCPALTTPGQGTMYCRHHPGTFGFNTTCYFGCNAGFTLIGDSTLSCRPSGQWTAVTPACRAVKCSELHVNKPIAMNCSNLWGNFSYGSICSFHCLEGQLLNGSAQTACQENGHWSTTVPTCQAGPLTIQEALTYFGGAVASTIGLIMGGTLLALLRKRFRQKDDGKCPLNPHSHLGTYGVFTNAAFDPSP

recombinant P-selectin = target: T2, recombinant P-selectin (Homo sapiens, UniProt P16109); assay: In vitro assay for inhibition of P-selectin binding (HSO3Le^a-PAA-biotin binding to immobilized recombinant selectin); details: for inhibition of recombinant P-selectin in the cell-free assay: result in words
T2 construct: Recombinant ZZ-selectin (monovalent) lacking the transmembrane and cytosolic domains was produced as C-terminal chimera with the ZZ domain of protein A; made in house
T2 sequence (P16109 42-771 limits assumed): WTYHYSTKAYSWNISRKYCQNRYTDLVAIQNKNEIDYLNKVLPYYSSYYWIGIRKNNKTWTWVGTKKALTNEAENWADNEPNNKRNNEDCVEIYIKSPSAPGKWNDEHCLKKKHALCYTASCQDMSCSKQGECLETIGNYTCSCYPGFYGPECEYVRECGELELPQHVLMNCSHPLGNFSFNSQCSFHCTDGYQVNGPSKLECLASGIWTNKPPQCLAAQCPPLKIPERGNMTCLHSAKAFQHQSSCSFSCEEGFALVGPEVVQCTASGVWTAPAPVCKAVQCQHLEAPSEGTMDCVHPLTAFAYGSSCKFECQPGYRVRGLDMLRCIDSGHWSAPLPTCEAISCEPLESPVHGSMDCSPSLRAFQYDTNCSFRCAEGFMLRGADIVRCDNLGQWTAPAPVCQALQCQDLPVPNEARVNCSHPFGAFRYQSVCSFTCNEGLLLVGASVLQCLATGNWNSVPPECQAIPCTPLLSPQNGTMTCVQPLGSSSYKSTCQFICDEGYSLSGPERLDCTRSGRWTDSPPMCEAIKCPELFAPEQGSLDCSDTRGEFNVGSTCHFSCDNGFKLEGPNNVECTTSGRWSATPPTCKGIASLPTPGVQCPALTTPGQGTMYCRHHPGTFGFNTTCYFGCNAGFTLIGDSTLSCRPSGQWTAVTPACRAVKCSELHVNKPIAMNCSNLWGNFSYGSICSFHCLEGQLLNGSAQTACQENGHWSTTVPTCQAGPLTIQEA
From the text: The in vitro test-system is based on the inhibition of HSO3Le^a-PAA-biotin binding to recombinant P-selectin. For details, see example 1.
All PAA-based neoglycoconjugates were from 30 to 40 kDa and obtained according to standard methods (Gordeeva, E. A., Tuzikov, A. B., Galanina, O. E., Pochechueva, T. V. & Bovin, N. V. (2000). Microscale synthesis of glycoconjugate series and libraries. Anal. Biochem. 278, 230-232; Bovin, N. V., Korchagina, E. Yu., Zemlyanukhina, T. V., Byramova, N. E., Galanina, O. E., Zemlyakov, A. E., Ivanov, A. E., Zubov, V. P., and Mochalova, L. V. (1993) Synthesis of polymeric neoglycoconjugates based on N-substituted polyacrylamide. Glycoconj. J. 10, 142-151). sTyr-PAA (containing 80 mol % sTyr) was synthesized using 200% excess of sTyr in relation to the activated polymer. The degree of sTyr substitution was determined by the conjugate's increase in weight. Recombinant ZZ-selectin (monovalent) lacking the transmembrane and cytosolic domains was produced as C-terminal chimera with the ZZ domain of protein A (Priest, R., Nawaz, S., Green, P. M., and Bird, M. I. (1995). Adhesion of eosinophils to E- & P-selectin. Biochem. Soc. Trans. 23, 162S). Tripeptide Tyr-Tyr-Tyr (Bachem, Germany) and aminoglucitol (Sigma) were per-O-sulfated with SO3/Py complex (Field, R. A., Otter, A., Fu, W., Hindsgaul, O. Carbohydr. Res. 1995, 276, 347-363). Fucoidan was purchased from Sigma (USA).
The assay was performed on 96-Well plates. Human IgG was used as a primary coating reagent to immobilize recombinant selectin via the ZZ-domain of the fusion protein. The working concentration of selectin was 3 ng/well. […] Details of this assay were published in (Game, S. M., Rajapurohit, P. K., Clifford, M., Bird, M. I., Priest, R., Bovin, N. V., Nifant'ev, N. E., O'Beime, G., and Cook, N. D. (1998) Scintillation proximity assay for E-, P-, and L-selectin utilizing polyacrylamide-based neoglycoconjugates as ligands. Anal. Biochem. 258, 127-135; Tatyana V. Pochechueva, Oxana E. Galanina, Michael I. Bird, Nikolay E. Nifant'ev, Nicolai V. Bovin. Assembly of P-Selectin Ligands on a Polymeric Template, Chem&Biol, Vol. 9, 2002, p. 757-762; Natalia Ushakova, Marina Preobrazhenskaya, Mike I. Bird, Richard Priest, A. V. Semenov, A. V. Mazurov, Nikolay Ni-fant'ev, Tatyana Pochechueva, Oxaha Galanina, Nicolai Bovin. Monomeric and Multimeric Blockers of Selectins: Comparison of In Vitro and In Vivo Activity/Biol. Chem. Hoppe Seyler, 2002 submitted).

yield of neutrophils = details: mouse; Cecconi et al. 1994; cited from earlier work
[2] = inhibition of HSO3Le^a-PAA-biotin binding with P-selectin, means of at least triplicate determinations

Compound: Fucoidan
Mean inhibition (% to control) ([1]; Series 2, 1.0 mg per rat i.v.): 92 (p < 0.001) %
Number of neutrophils per rat × 10^−6 ([1]; Series 2, 1.0 mg per rat i.v., mean ± SEM): 2.5 ± 0.5 × 10^−6
blocking of the inflammation process ([1]; result in words): definitely blocked the inflammation process
IC50 (P-selectin; Pochechueva et al., Ley et al. 1993, repeating hexasaccharide units): 100 nM
IC50 (recombinant P-selectin; [2]): 100 nM
IC50 in weight (recombinant P-selectin; inhibition of HSO3Le^a-PAA-biotin binding with P-selectin, weight concentration): (100 ng/ml)^2

Compound: CC(=O)NC1C(O)OC(CO)C(OC2OC(C)C(O)C(O)C2O)C1OC1OC(CO)C(O)C(OS(=O)(=O)O)C1O (centres unmarked) [HSO3Le^a, 3′-HSO3Galβ1-3(Fucα1-4)GIcNAc]
IC50, μM (recombinant P-selectin; [2]): Nl

Compound: O=P(O)(O)O[C@H]1[C@H](OP(=O)(O)O)[C@@H](OP(=O)(O)O)[C@H](OP(=O)(O)O)[C@@H](OP(=O)(O)O)[C@H]1OP(=O)(O)O [Inositol hexaphosphate]
dose inhibiting the yield of neutrophils (almost half of them) (yield of neutrophils): about 70 mg/kg

Compound: 3-0-sulfated galactocerebroside [sulfatide]
IC50 (P-selectin; Marinier et al. 1997, sulfatide and some of its synthetic analogues): 100 to 1000 nM

More lines, now with the values ahead:

IC50, μM (recombinant P-selectin; [2]): Nl
Compound: N[C@@H](Cc1ccc(OS(=O)(=O)O)cc1)C(=O)O [sTyr, tyrosine-O-sulfate]

IC50, μM (recombinant P-selectin; [2]): Nl
inhibition of recombinant P-selectin in the cell-free assay (recombinant P-selectin): unable to inhibit
Compound: Tripeptide Tyr-Tyr-Tyr per-O-sulfated with SO3/Py complex [sTyr-sTyr-sTyr]

IC50, μM (recombinant P-selectin; [2]): Nl
inhibition of recombinant P-selectin in the cell-free assay (recombinant P-selectin): unable to inhibit
Compound: Hexa-O-sulfo-aminoglucitol
